This assay relates to Pseudomonas aeruginosa. Put plainly: Anti-biofilm activity against Pseudomonas aeruginosa PAO1 harboring wspF gene mutation assessed as reduction on c-di-GMP level by measuring GFP fluorescence at 100 uM incubated for 24 hrs […]. It is filed as functional. Also on record: scale not given: the % may be the effect or the level left.

Structures are written as SMILES.

Regarding `COc1ccc(NN=C2C(N)=NN=C2N)cc1`, the Activity came out at 0%.

As to `N=C1NN=C(N)/C1=N/Nc1cc(F)ccc1F`, the Activity is 65%.

In the case of `N=C1/C(=N\Nc2ccccc2F)C(N)=NN1c1ccc(S(N)(=O)=O)cc1`, the Activity is on record as 0%.

For the molecule `N=C1NN=C(N)/C1=N/Nc1ccccc1O`, the Activity turned out to be 55%.

As to `NC1=NNC(=O)/C1=N\Nc1ccccc1F`, the Activity is given as 0%.

As for `N=C1NN=C(N)/C1=N/Nc1c(O)cccc1F`, the Activity worked out at 75%.

As to `N=C1NN=C(N)/C1=N/Nc1ccc(F)cc1F`, the Activity amounted to 41%.

As for `N=C1ON=C(N)/C1=N/Nc1c(F)cccc1F`, the Activity was 0%.

As for `N=C1/C(=N\Nc2ccccc2F)C(N)=NN1CCO`, the Activity was found to be 0%.

For the molecule `N=C1/C(=N\Nc2ccccc2F)C(N)=NN1c1ccc(F)cc1`, the Activity is listed as 0%.

Regarding `N=C1/C(=N\Nc2ccccc2F)C(N)=NN1c1ccc(C(=O)O)cc1`, the Activity turned out to be 0%.

Consider `N=C1NN=C(N)C1c1ccc2ccccc2n1` (stereo unspecified), for which the Activity is given as 0%.

In the case of `N=C1NN=C(N)/C1=N/Nc1cc(Br)cc(Br)c1`, the Activity stood at 0%.

For the molecule `CC(=O)/N=C1\NN=C(NC(C)=O)\C1=N\Nc1ccccc1F`, the Activity stood at 0%.

As to `CC(=O)NC1=NN(C(C)=O)C(=N)/C1=N\Nc1ccccc1F`, the Activity is given as 0%.

As to `Cc1cccc(F)c1N/N=C1\C(=N)NN=C1N`, the Activity came out at 0%.

As to `NC1=NOC(=O)/C1=N\Nc1ccccc1F`, the Activity was 0%.

`N=C1NN=C(N)/C1=N/Nc1cc(F)cc(F)c1`: the Activity is reported as 35%.

For the molecule `N=C1NN=C(N)/C1=N/Nc1c(F)cccc1Br`, the Activity turned out to be 0%.

For `N=C1ON=C(N)/C1=N/Nc1cc(F)ccc1F`, the Activity is reported as 0%.

`N=C1NN=C(N)/C1=N/Nc1ccccc1`: the Activity is given as 71%.

On to `N=C1ON=C(N)/C1=N/Nc1c(O)cccc1F`, for which the Activity worked out at 0%.

For `N=C1NN=C(N)/C1=N/Nc1ccncc1F`, the Activity came out at 0%.

For `N=C1/C(=N\Nc2ccccc2F)C(N)=NN1S(=O)(=O)c1ccc(N)cc1`, the Activity amounted to 0%.

Take `N=C1NN=C(N)/C1=N/Nc1cccnc1F`: the Activity came out at 13%.

With `NNc1ccccc1F`, the Activity worked out at 0%.

`N=C1/C(=N\Nc2ccccc2F)C(N)=NN1Cc1ccccc1`: the Activity stood at 0%.

Take `N=C1NN=C(N)/C1=N/Nc1ccccc1C(F)(F)F`: the Activity stood at 0%.

On to `N=C1NN=C(N)/C1=N/Nc1ccccc1Br`, for which the Activity amounted to 0%.

Take `N=C1NN=C(N)/C1=N/Nc1c(O)cccc1O`: the Activity was found to be 15%.

For the molecule `N=C1NN=C(N)/C1=N/Nc1cccc(F)c1F`, the Activity was 48%.

In the case of `N=C1NN=C(N)/C1=N/Nc1ccc(F)c(F)c1F`, the Activity is reported as 0%.

With `N=C1/C(=N\Nc2ccccc2F)C(N)=NN1C(=O)c1ccccc1`, the Activity amounted to 0%.

For `N=C1NN=C(N)/C1=N/Nc1ccccc1I`, the Activity amounted to 0%.

For `N=C1NN=C(N)/C1=N/Nc1ccccc1Cl`, the Activity was 0%.

With `N=C1ON=C(N)/C1=N/Nc1ccccc1F`, the Activity is on record as 0%.

For the molecule `N=C1NN=C(N)/C1=N/Nc1cc(Br)ccc1Br`, the Activity came out at 0%.

In the case of `Cc1ccc(N/N=C2\C(=N)NN=C2N)c(F)c1`, the Activity stood at 0%.

For `O=C1NNC(=O)C1=NNc1ccccc1F`, the Activity is 0%.

For the molecule `N=C1NN=C(N)/C1=N/Nc1ccccc1N`, the Activity is on record as 0%.

As for `N=C1NN=C(N)/C1=N/Nc1ccc(F)cc1`, the Activity worked out at 44%.

On to `N=C1ONC(=O)/C1=N\Nc1ccccc1F`, for which the Activity was 0%.

As to `N=C1NN=C(N)/C1=N/Nc1cccc(O)c1`, the Activity came to 0%.

Take `N=C1/C(=N\Nc2ccccc2F)C(N)=NN1C(=O)c1ccncc1`: the Activity came to 40%.

In the case of `N=C1NN=C(N)/C1=N/Nc1cc(Br)ccc1F`, the Activity came out at 0%.

On to `N=C1NN=C(N)/C1=N/Nc1c(Br)cccc1Br`, for which the Activity stood at 0%.

With `COc1ccccc1N/N=C1\C(=N)NN=C1N`, the Activity is on record as 0%.

Turning to `N=C1NN=C(N)/C1=N/Nc1c(F)cccc1F`, the Activity was 77%.

`N=C1NN=C(N)/C1=N/Nc1c(F)ccc(F)c1F`: the Activity is 61%.

As for `N=C1NN=C(N)/C1=N/Nc1c(F)cc(F)cc1F`, the Activity was 30%.

For the molecule `N=C1NN=C(N)/C1=N/Nc1ccccc1F`, the Activity came to 83%.

As for `N=C1NN=C(N)/C1=N/Nc1cccc(F)c1`, the Activity was 73%.

Regarding `N=C1NN=C(N)/C1=N/Nc1cc(F)ccc1Br`, the Activity amounted to 0%.

As for `N=C1/C(=N\Nc2ccccc2F)C(N)=NN1S(=O)(=O)c1ccccc1`, the Activity was found to be 0%.

With `N=C1ON=C(N)/C1=N/Nc1ccccc1O`, the Activity came to 0%.

For `O=C1NOC(=O)/C1=N\Nc1ccccc1F`, the Activity is 0%.

The values are drawn from ChEMBL document CHEMBL5107953, “SAR study of 4-arylazo-3,5-diamino-1H-pyrazoles: identification of small molecules that induce dispersal of Pseudomonas aeruginosa biofilms” (2021).
